Data set [1] has as its system SW620 colon adenocarcinoma cells (wild-type B-RAF). The experiment in a line: SW620 cell growth inhibition (ATPlite). Format: cell-based. The following applies: Homo sapiens, SW-620, 72 h; SW620, 3 days incubation. How it is done:
(§1) Compounds are assessed in a variety of cell based assays. For example human cell lines with B-Raf V600E mutation (A375 melanoma, SKMEL3 melanoma, and COL0205 colon adenocarcinoma), as well as tumorigenic cell lines with wild-type B-RAF (SW620 colon adenocarcinoma) or with Ras mutations (SKMEL2 melanoma and IPC298 melanoma). Similar assays may be used to assess additional tumorigenic cell lines with Ras mutations, including, but not limited to, M202, M207, M243, M244, M296, S117, HCT116, HCT15, DLD1, MiaPaCa, A549, NCI-H23, NCI-H460, HOP62, MDA-MB231, Hs-578T, HL60, MOLT-4, and CCRF-CEM.
(§2) On day 1, cells are counted, then centrifuged in a conical tube for 5 minutes at 1000 rpm. The supernatant is removed and cells are re-suspended as follows: • SW620 (ATCC catalog #CCL-27): resuspend in Leibovitz's L-15 medium, 2 mM L-glutamine, 10% fetal bovine serum to 6×10^4 cells/mL. • A375 (ATCC catalog #CRL-1619): resuspend in Dulbecco's modified Eagle's medium, 4 mM L-glutamine, 4.5 g/L D-glucose, 10% fetal bovine serum to 6×10^4 cells/mL. • COL0205 (ATCC catalog #CCL-222): resuspend in RPMI 1640, 2 mM L-glutamine, 1.5 g/L sodium bicarbonate, 4.5 g/L D-glucose, 10 mM HEPES, 1.0 mM sodium pyruvate, 10% fetal bovine serum to 6×10^4 cells/mL. • SKMEL2 (ATCC catalog #HTB-68): resuspend in Minimum Eagle essential medium, 2 mM L-glutamine, 1.5 g/L sodium bicarbonate, 0.1 mM non-essential amino acids, 1.0 mM sodium pyruvate, 10% fetal bovine serum to 6×10^4 cells/mL. • SKMEL3 (ATCC catalog #HTB-69): resuspend in McCoy's 5A medium, 1.5 mM L-glutamine, 15% fetal bovine serum to 6×10^4 cells/mL. • IPC298 (DSMZ catalog #ACC 251): resuspend in RPMI 1640, 2 mM L-glutamine, 10% fetal bovine serum to 6×10^4 cells/mL.
(§3) The cells are plated, 50 μL in each well of a 96-well dish (Corning 3610) and incubated at 37° C. in 5% CO2 overnight, cells plated to a final concentration of cells as follows:
(§4) On day 2, compound at a maximum concentration of 5 mM is serially diluted 1:3 for a total of 8 point titration with DMSO as a control. A 1 μL aliquot of each dilution point and control is added to 249 μL growth media and 50 μL is added to a well containing cells, providing 10 μM compound at the maximum concentration point. The cells are incubated for 3 days at 37° C. in 5% CO2.
(§5) On day 5, ATPlite 1 step Luminescence Assay System (Perkin Elmer #6016739) is brought to room temperature along with the cell cultures. ATPlite is added 25 μL to each well, shake for 2 minutes, and the cells are incubated at room temperature for 10 minutes, then luminescence is read on Safire reader. The measured luminescence correlates directly with cell number, such that the reading as a function of compound concentration is used to determine the IC50 value.
(§6) It is understood that the results of these assays may vary as assay conditions are varied. Inhibition levels determined under the conditions described herein represent a relative activity for the compounds tested under the specific conditions employed. The cell based assays are likely to show variability due to the complexity of the system and the sensitivity thereof to any changes in the assay conditions. […] Results for compounds that are tested and show substantially no inhibition below the highest tested concentration are represented as “-” in the tables below. In some instances, the compounds were not tested in all of the assays, or assay results were not valid, as indicated by NA in the tables below.
Background: In ATP-based viability assays light output follows the ATP content of the culture.

In data set [2] the test system is A375 melanoma cells (B-Raf V600E). The experiment in a line: A375 cell growth inhibition (ATPlite). Format: cell-based. The following applies: Homo sapiens, A-375, 72 h; A375, 3 days incubation. How it is done:
as §1, §2, §3, §4, §5, §6

Data set [3] relates to COLO205 colon adenocarcinoma cells (B-Raf V600E). The experiment in a line: COLO205 cell growth inhibition (ATPlite). The conditions noted are these: Homo sapiens, COLO 205, 72 h; COLO205, 3 days incubation. Format: cell-based. How it is done: as §1, §2, §3, §4, §5, §6
In data set [4] the test system is SKMEL2 melanoma cells (Ras mutation). The experiment in a line: SKMEL2 cell growth inhibition (ATPlite). Format: cell-based. The conditions noted are these: Homo sapiens, SK-MEL-2, 72 h; SKMEL2, 3 days incubation. How it is done:
as §1, §2, §3
SKMEL2: 2,000 cells per well.
as §4, §5, §6

For data set [5], the system named is Colo205 xenograft. The experiment in a line: Colo205 xenograft mouse model, tumor growth inhibition. Format: in vivo. The conditions noted are these: COLO 205, 336 h, female nu/nu mice, 10 mg/kg daily for fourteen days. On the procedure:
Tumor growth is monitored to approximately 100 mg size, and mice are distributed to treatment groups such that the mean tumor burden within a group is within 10% of the overall mean tumor burden. […] Mice are observed daily, with tumor burden and body weights measured twice a week. Animals with tumor burden above 1500-2000 mg and any animals in moribund condition are euthanized. The average tumor growth of vehicle control group mice is compared to the average tumor growth of the test compound mice. Percent tumor growth inhibition is calculated as 100×[(tumor growth control-tumor growth test compound)/tumor growth control].

Data set [6] can be described thus: Relative solubility by turbidity in aqueous buffers of varying pH. Format: physicochemical. How it is done:
As an indication of relative solubility, the turbidity of compounds in aqueous solutions is assessed. To assess possible compound properties in different physiological compartments, such as stomach, intestine, and blood, a series of aqueous buffers with varying pH is used. Thus each compound is diluted into four different physiologically relevant buffers and solution turbidity is measured by spectrophotometry.
Compounds are dissolved at a concentration of 25 mM in dimethyl sulfoxide, then serially diluted 1:1 into a 96 well plate, diluting 10 times in pure dimethyl sulfoxide, with the final well of each row a dimethyl sulfoxide blank. In an assay plate, 99 μL of appropriate buffer is added to each well, and 1 μL of each sample dilution is added to the buffer, achieving a range of final total concentrations in aqueous solutions having different pH. The buffers used are Simulated Gastric Fluid (SGF-pH 1.5) 0.5M NaCl, pH 1.5; Simulated Intestinal fluid (SIF-pH 4.5 and pH 6.8) 0.05M NaH2PO4, pH 4.5 and 6.8; and Hepes Buffer (HEPES-pH 7.4) 10 mM HEPES, 150 mM NaCl, pH 7.4. Control compounds pyrene, estriol and propranolol HCl are also assessed. Plates are spun and then mixed for 1 minute, and the absorbance is read using a Tecan Safire II to read wavelengths in the visible range (490, 535, and 650 nm) at four locations per well, reflecting the degree of turbidity present. The average optical density for each wavelength in each well is graphed vs. compound concentration, and the concentration at which the curve crosses a threshold O.D. of 0.01 for each wavelength is reported as the endpoint turbidity assay result. The average of the three wavelengths is used to compare turbidity of compounds. Compounds are considered to have low solubility if the threshold concentration is <31.3 04, moderate solubility if the threshold concentration is 31.3 μM to 250 μM, and high solubility if the threshold concentration is >250 μM.

Data set [7] deals with CYP3A4(BFC) (Homo sapiens, UniProt P08684). The experiment in a line: CYP3A4(BFC) inhibition (fluorescent substrate). The format is in vitro ADME. The following applies: read-out: Cyp IC50 3A4(BFC). How it is done:
(§7) CYP (Cytochrome P450) enzymes are the major drug metabolizing enzymes present in the liver. The inhibition of CYP enzyme activity (IC50) for each of CYP1A2, CYP2C19, CYP2C9, CYP2D6, CYP3A4(BFC) and CYP3A4(BQ) is determined for compounds, where inhibition of metabolism of a known substrate leads to a decrease in the fluorescence of the metabolized product. The fluorescence of the product is monitored as a function of compound concentration. Compounds are dissolved in dimethyl sulfoxide to a concentration of 100 mM. These are diluted 1 μL into 82 μL of acetonitrile. […] These are then serially diluted 1:1 (160 μL to 160 μL co-factor mix) for a total of 10 points. A 10 μL aliquot of this final mixture is dispensed into 384 well assay plates and incubated for 10 minutes at 37° C. […] Assay plates are incubated at 37° C. […] The signal versus compound concentration is used to determine the IC50. The enzymes and substrates for this assay are obtained from BD Biosciences.

Data set [8] addresses CYP3A4(BQ) (Homo sapiens, UniProt P08684). The experiment in a line: CYP3A4(BQ) inhibition (fluorescent substrate). Format: in vitro ADME. The conditions noted are these: read-out: Cyp IC50 3A4(BQ). How it is done:
as §7

The structures appear in SMILES notation.

By IC50 is commonly meant the concentration that gives 50% inhibition. One may read the inhibition in vivo as the change of the read-out against control, counted positive when it falls.

Chain of CYP3A4(BQ) (P08684 whole entry): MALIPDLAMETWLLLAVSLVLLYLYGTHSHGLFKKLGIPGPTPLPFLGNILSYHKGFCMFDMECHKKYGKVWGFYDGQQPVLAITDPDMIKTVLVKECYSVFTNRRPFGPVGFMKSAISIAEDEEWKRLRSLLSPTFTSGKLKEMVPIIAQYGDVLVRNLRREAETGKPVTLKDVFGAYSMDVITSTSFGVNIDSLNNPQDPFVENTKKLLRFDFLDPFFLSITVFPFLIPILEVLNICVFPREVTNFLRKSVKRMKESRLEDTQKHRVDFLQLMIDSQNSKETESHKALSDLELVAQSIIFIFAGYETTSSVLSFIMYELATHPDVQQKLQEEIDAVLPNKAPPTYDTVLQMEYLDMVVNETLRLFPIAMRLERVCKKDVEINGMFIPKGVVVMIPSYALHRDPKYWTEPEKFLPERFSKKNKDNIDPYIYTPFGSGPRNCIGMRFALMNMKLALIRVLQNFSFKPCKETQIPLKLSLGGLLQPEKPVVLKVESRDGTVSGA
Chain of CYP3A4(BFC) (P08684 whole entry): as above

As to `O=C(c1c(F)ccc(NS(=O)(=O)c2cccnc2)c1F)c1c[nH]c2ncc(Cl)cc12` [P-2071, Pyridine-3-sulfonic acid [3-(5-chloro-1H-pyrrolo[2,3-b]pyridine-3-carbonyl)-2,4-difluoro-phenyl]-amide], the IC50 is greater than 10 µM in data set [1]; less than 1 µM in data set [2]; less than 1 µM in data set [3]; greater than 10 µM in data set [4]; less than 5 µM in data set [7]; less than 5 µM in data set [8]. This compound showed an inhibition in vivo at 10 mg/kg in data set [5] of 59%. Besides, the “turbidity threshold (L, M, H) 7.4” value in data set [6] (HEPES pH 7.4) is on record as “M (moderate solubility if the threshold concentration is 31.3 μM to 250 μM)”. In addition, in data set [6] (SIF pH 4.5), the “turbidity threshold (L, M, H) 4.5” value is “M (moderate solubility if the threshold concentration is 31.3 μM to 250 μM)”. Moreover, the “turbidity threshold (L, M, H) 6.8” value in data set [6] (SIF pH 6.8) is “M (moderate solubility if the threshold concentration is 31.3 μM to 250 μM)”. The “turbidity threshold (L, M, H) 1.4” value in data set [6] (buffer pH 1.4 (SGF)) is reported as “M (moderate solubility if the threshold concentration is 31.3 μM to 250 μM)”.

The record behind these values is US8198273B2, “Compounds and methods for kinase modulation, and indications therefor” (Plexxikon Inc., priority 2009, dated 2012).
